Measured values: article PMC5727211, “Development of Erasin: a chromone-based STAT3 inhibitor which induces apoptosis in Erlotinib-resistant lung cancer cells” (Scientific Reports, 2017)
Entries after “also recorded” stand apart in the source; their conditions may differ.

Tests used:
STAT5b SH2 domain = molecular target: T1, STAT5b SH2 domain (Homo sapiens, UniProt P51692); assay: FP-based competitive binding assay, STAT5b SH2 domain; conditions: at 80 µM, mean ± s.d., three experiments
T1 sequence (P51692 1-787): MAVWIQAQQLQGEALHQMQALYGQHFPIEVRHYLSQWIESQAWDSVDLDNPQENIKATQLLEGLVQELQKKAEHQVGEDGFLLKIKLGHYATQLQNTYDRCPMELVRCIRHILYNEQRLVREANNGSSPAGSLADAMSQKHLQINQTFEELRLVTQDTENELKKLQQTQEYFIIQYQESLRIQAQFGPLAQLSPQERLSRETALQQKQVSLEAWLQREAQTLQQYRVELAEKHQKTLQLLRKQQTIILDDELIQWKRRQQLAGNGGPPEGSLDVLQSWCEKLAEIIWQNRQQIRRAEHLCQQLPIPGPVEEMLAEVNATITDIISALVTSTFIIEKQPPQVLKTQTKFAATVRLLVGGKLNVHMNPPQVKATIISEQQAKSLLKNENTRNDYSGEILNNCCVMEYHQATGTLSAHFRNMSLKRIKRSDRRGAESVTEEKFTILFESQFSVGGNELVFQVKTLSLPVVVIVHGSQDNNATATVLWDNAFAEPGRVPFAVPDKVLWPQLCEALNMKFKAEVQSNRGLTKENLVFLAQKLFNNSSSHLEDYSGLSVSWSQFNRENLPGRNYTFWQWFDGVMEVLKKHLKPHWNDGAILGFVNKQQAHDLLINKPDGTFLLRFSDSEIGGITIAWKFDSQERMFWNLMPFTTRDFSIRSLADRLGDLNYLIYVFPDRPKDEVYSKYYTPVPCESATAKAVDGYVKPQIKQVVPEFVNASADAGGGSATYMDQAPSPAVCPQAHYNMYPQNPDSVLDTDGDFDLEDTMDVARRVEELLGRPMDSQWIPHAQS
Experimental: The STAT family display a high degree of homology. […] Vilsmeyer-Haack formylation of 2-hydroxy acetophenones led to 3-formyl chromones, which were subsequently converted to the acyl hydrazones by reaction with hydrazides (Fig. 1). The target molecules were tested for their abilities to inhibit binding of fluorophore-labeled peptides to the SH2 domains of STAT1[24], STAT3[25], and STAT5b[26] in assays based on fluorescence polarization (FP). The more distantly related SH2 domain of the tyrosine kinase Lck served as additional specificity control[27],[28].
Assays were performed essentially as described. In brief, protein was incubated with the test compounds for 1 h at room temperature at the following protein concentrations: STAT1: 400 nM, STAT3: 210 nM, STAT5b: 300 nM, Lck SH2: 35 nM. Subsequently, the corresponding fluorophore-labeled peptide was added: STAT1: (5-carboxyfluorescein)-GpYDKPHVL-OH, derived from the interferon-γ receptor[24]; STAT3: (5-carboxyfluorescein)-GpYLPQTV-NH2, derived from the gp130 subunit of the IL-6 receptor[25]; STAT5b: (5-carboxyfluorescein)-GpYLVLDKW-OH, derived from the erythropoietin receptor[26]; Lck SH2: (5-carboxyfluorescein)-GpYEEIP-OH, derived from the middle-T antigen. After a further hour of incubation, fluorescence polarization was measured in a plate reader (Tecan Infinite F500). Apparent IC50 data shown in Tables 1, 2, and S1 and the inhibition curves shown in Fig. 2a correspond to this time point. The majority of the pipetting work was carried out using a Biomek FXp workstation (Beckman-Coulter). Buffer composition: 10 mM Tris pH 8.0, 50 mM NaCl, 1 mM EDTA, 1 mM dithiothreitol (DTT), 0.1% Nonidet P-40, and 2% DMSO.

parental HCC-827 cells = assay: Apoptosis assay (Annexin V/7-AAD flow cytometry), parental HCC-827 cells; type: cell-based, human; conditions: 24 h
Experimental: Afterwards, the cell culture supernatant from each well was collected. […] The supernatants were then returned to each well to neutralize the Accutase solution and the cells were centrifuged at 3000 rpm, at 4 °C for 5 min. The cell pellets were washed twice with cold PBS and centrifuged again. […] Cells were resuspended in 1 x binding buffer and incubated with PE Annexin V and 7-AAD at 4 °C for 30 min. Apoptosis was measured using an LSR II flow cytometer (BD Bioscience). Experiments were carried out in at least triplicate.

[1] = tested on: STAT3 Tyr705 phosphorylation; assay: Western Blot, STAT3 Tyr705 phosphorylation in Erlotinib-resistant HCC-827 cells; type: cell-based, human; conditions: 24 h
Experimental: HepG2 cells were plated in 6-well plates (Corning #3516) and allowed to reach approximately 60% confluence. The medium was then replaced with serum-free medium for 24 h. Cells were subsequently pre-treated with compound or DMSO (final DMSO concentration: 0.2%) for 1 h at 37 °C, prior to stimulation for 15 min with 50 ng/mL IFNγ (Pepro Tech, for STAT1 phosphorylation), or 30 min with 50 ng/mL IL-6 (Pepro Tech, for STAT3 phosphorylation). Cells were treated with test compound or DMSO for 1 h (final DMSO concentration 0.2%). K562 cells (1.5 × 10^6 cells per well) were seeded in 6-well plates (Corning #3516) and were treated with test compound or DMSO for 1.5 h (final DMSO concentration 0.2%). […] Afterwards, cells were treated with the test compounds or DMSO (final DMSO concentration: 0.2%) for 24 h. Afterwards, the cells were washed twice with cold phosphate buffered saline (PBS). […]
Lysates were separated on a polyacrylamide gel under denaturing conditions, and transferred to a nitrocellulose membrane. STAT phosphorylation was assessed using rabbit monoclonal antibodies against the phosphorylated forms only of STAT1, STAT3 or STAT5 (Cell Signaling, 1:1000) with secondary antibody swine anti-rabbit HRP from Dako, 1:3000), followed by reblotting with rabbit monoclonal antibodies against total STAT1, STAT3 or STAT5 (Cell Signaling), and subsequently β-actin loading control. […]

| Compound | STAT5b inhibition (STAT5b SH2 domain) | increase in rate of apoptosis relative to DMSO control (parental HCC-827 cells) | STAT3 Tyr705 phosphorylation [1] | inhibition at 80 µM (STAT5b SH2 domain) |
| --- | --- | --- | --- | --- |
| CCC(C)(C)c1ccc2occ(/C=N/NC(=O)c3cccnc3)c(=O)c2c1 [Compound 9] | no inhibition at 80 µM | did not significantly increase apoptosis; also recorded: did not increase the apoptotic rate | did not reduce STAT3 Tyr705 phosphorylation | – |
| CC(C)(C)c1ccc2occ(/C=N/NC(=O)c3cccnc3)c(=O)c2c1 [Compound 8] | – | up to four-fold increase | dose-dependent inhibitory effect | 32 ± 2% |
